Patent US20260132140A1, “IMIDAZOLYL-AMINO-PYRAZINE-CARBONITRILS AS CHK-1 INHIBITORS” (BenevolentAI Bio Limited, priority 2022, published 2026)

Legend:
human Chk1 kinase = molecular target: T1, human Chk1 kinase (Homo sapiens, UniProt O14757); assay: biochemical
T1 sequence (O14757 1-476): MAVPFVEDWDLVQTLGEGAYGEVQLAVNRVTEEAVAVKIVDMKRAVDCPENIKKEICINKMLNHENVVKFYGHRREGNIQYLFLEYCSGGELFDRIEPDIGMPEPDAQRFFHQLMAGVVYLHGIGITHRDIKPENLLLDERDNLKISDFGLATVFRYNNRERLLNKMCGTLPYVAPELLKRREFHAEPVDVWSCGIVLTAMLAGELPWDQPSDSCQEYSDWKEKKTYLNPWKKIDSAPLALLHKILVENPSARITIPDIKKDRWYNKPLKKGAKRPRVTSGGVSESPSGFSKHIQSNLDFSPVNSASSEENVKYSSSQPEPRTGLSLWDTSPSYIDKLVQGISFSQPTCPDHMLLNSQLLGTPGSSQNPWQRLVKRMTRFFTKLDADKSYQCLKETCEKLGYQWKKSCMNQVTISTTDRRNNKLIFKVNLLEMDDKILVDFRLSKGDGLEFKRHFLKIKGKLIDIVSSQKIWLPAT

human Chk2 kinase = human Chk2 kinase (Homo sapiens, UniProt O96017); assay: biochemical
Chain of human Chk2 kinase (O96017 whole entry): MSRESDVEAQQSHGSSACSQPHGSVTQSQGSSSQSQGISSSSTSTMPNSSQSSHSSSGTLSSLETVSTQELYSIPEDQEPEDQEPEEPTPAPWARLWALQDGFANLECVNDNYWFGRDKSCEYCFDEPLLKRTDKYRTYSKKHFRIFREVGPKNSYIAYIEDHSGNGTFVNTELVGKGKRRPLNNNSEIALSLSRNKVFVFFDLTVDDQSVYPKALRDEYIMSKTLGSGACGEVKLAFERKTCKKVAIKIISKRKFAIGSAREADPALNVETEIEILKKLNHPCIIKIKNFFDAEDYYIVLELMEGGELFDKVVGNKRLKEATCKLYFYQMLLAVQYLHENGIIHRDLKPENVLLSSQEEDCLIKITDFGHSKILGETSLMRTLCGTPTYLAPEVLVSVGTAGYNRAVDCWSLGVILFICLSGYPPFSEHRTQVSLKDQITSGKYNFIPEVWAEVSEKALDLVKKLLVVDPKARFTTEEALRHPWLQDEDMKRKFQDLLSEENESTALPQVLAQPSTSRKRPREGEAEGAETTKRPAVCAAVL

IC50 (human Chk1 kinase) [nM] | IC50 (human Chk2 kinase) [nM] | Compound
31.6 to 100 | 10000 to 100000 | CN1CCOC(c2ccc(-n3cnc(Nc4cnc(C#N)cn4)c3)cc2)C1 (single isomer, unassigned) [Example 105, 5-((1-(4-(4-Methylmorpholin-2-yl)phenyl)-1H-imidazol-4-yl)amino)pyrazine-2-carbonitrile]
31.6 to 100 | 10000 to 100000 | CN(C)CC1CN(c2cccc(-n3cnc(Nc4cnc(C#N)cn4)c3)c2)CCO1 (single isomer, unassigned) [Example 107, 5-((1-(3-(2-((Dimethylamino)methyl)morpholino)phenyl)-1H-imidazol-4-yl)amino)pyrazine-2-carbonitrile]
10 to 31.6 | > 100000 | CN(CCO)C1CCN(c2cccc(-n3cnc(Nc4cnc(C#N)cn4)c3)c2)C1 (single isomer, unassigned) [Example 109, 5-((1-(3-(3-((2-Hydroxyethyl)(methyl)amino)pyrrolidin-1-yl)phenyl)-1H-imidazol-4-yl)amino)pyrazine-2-carbonitrile]
31.6 to 100 | 10000 to 100000 | CN(C)C1CCCN(c2cccc(-n3cnc(Nc4cnc(C#N)cn4)c3)c2)C1 (single isomer, unassigned) [Example 111, 5-((1-(3-(3-(Dimethylamino)piperidin-1-yl)phenyl)-1H-imidazol-4-yl)amino)pyrazine-2-carbonitrile]
< 10 | 1000 to 10000 | N#Cc1cnc(Nc2cn(-c3ccc(N4CCC(N5CCC5)C4)cc3)cn2)cn1 (single isomer, unassigned) [Example 114, 5-((1-(4-(3-(Azetidin-1-yl)pyrrolidin-1-yl)phenyl)-1H-imidazol-4-yl)amino)pyrazine-2-carbonitrile]
31.6 to 100 | – | CN(C)CC1CCN(c2ccc(-n3cnc(Nc4cnc(C#N)cn4)c3)cc2)C1 (single isomer, unassigned) [Example 115, 5-((1-(4-(3-((Dimethylamino)methyl)pyrrolidin-1-yl)phenyl)-1H-imidazol-4-yl)amino)pyrazine-2-carbonitrile]
10 to 31.6 | > 100000 | N#Cc1cnc(Nc2cn(-c3ccc(N4CCN5CCCC5C4)cc3)cn2)cn1 (single isomer, unassigned) [Example 117, 5-((1-(4-(Hexahydropyrrolo[1,2-a]pyrazin-2(1H)-yl)phenyl)-1H-imidazol-4-yl)amino)pyrazine-2-carbonitrile]
10 to 31.6 | 10000 to 100000 | CN1CCC2(CCN2c2ccc(-n3cnc(Nc4cnc(C#N)cn4)c3)cc2)C1 (single isomer, unassigned) [Example 119, 5-((1-(4-(6-Methyl-1,6-diazaspiro[3.4]octan-1-yl)phenyl)-1H-imidazol-4-yl)amino)pyrazine-2-carbonitrile]
< 10 | > 100000 | CN(C)C1CCCN(c2ccc(-n3cnc(Nc4cnc(C#N)cn4)c3)cc2)C1 (single isomer, unassigned) [Example 121, 5-((1-(4-(3-(Dimethylamino)piperidin-1-yl)phenyl)-1H-imidazol-4-yl)amino)pyrazine-2-carbonitrile]
10 to 31.6 | 10000 to 100000 | CN(C)C1CCCN(c2ccc(-n3cnc(Nc4cnc(C#N)cn4)c3)cc2)C1 (single isomer, unassigned) [Example 122, 5-((1-(4-(3-(Dimethylamino)piperidin-1-yl)phenyl)-1H-imidazol-4-yl)amino)pyrazine-2-carbonitrile]
10 to 31.6 | > 100000 | CC1(C)CN(C2CCN(c3ccc(-n4cnc(Nc5cnc(C#N)cn5)c4)cc3)C2)C1 (single isomer, unassigned) [Example 123, 5-((1-(4-(3-(3,3-Dimethylazetidin-1-yl)pyrrolidin-1-yl)phenyl)-1H-imidazol-4-yl)amino)pyrazine-2-carbonitrile]
10 to 31.6 | 1000 to 10000 | CC1CN(C2CCN(c3ccc(-n4cnc(Nc5cnc(C#N)cn5)c4)cc3)C2)C1 (single isomer, unassigned) [Example 125, 5-((1-(4-(3-(3-Methylazetidin-1-yl)pyrrolidin-1-yl)phenyl)-1H-imidazol-4-yl)amino)pyrazine-2-carbonitrile]
10 to 31.6 | > 100000 | CN1CCC12CCN(c1ccc(-n3cnc(Nc4cnc(C#N)cn4)c3)cc1)C2 (single isomer, unassigned) [Example 127, 5-((1-(4-(1-Methyl-1,6-diazaspiro[3.4]octan-6-yl)phenyl)-1H-imidazol-4-yl)amino)pyrazine-2-carbonitrile]
31.6 to 100 | > 100000 | N#Cc1cnc(Nc2cn(-c3ccc(N4CCC(N5CC(F)C5)C4)cc3)cn2)cn1 (single isomer, unassigned) [Example 129, 5-((1-(4-(3-(3-Fluoroazetidin-1-yl)pyrrolidin-1-yl)phenyl)-1H-imidazol-4-yl)amino)pyrazine-2-carbonitrile]
10 to 31.6 | 1000 to 10000 | N#Cc1cnc(Nc2cn(-c3ccc(N4CCC(N5CC(F)C5)C4)cc3)cn2)cn1 (single isomer, unassigned) [Example 130, 5-((1-(4-(3-(3-Fluoroazetidin-1-yl)pyrrolidin-1-yl)phenyl)-1H-imidazol-4-yl)amino)pyrazine-2-carbonitrile]
10 to 31.6 | 1000 to 10000 | N#Cc1cnc(Nc2cn(-c3ccc(N4CCC(N5CC6(CCC6)C5)C4)cc3)cn2)cn1 (single isomer, unassigned) [Example 131, 5-((1-(4-(3-(2-Azaspiro[3.3]heptan-2-yl)pyrrolidin-1-yl)phenyl)-1H-imidazol-4-yl)amino)pyrazine-2-carbonitrile]
10 to 31.6 | – | CN1CC2(C1)CN(c1ccc(-n3cnc(Nc4cnc(C#N)cn4)c3)cc1)C2 [Example 11, 5-((1-(4-(6-Methyl-2,6-diazaspiro[3.3]heptan-2-yl)phenyl)-1H-imidazol-4-yl)amino)pyrazine-2-carbonitrile]
31.6 to 100 | – | CN(C)[C@H]1CCN(c2ccc(-n3cnc(Nc4cnc(C#N)cn4)c3)cc2)C1 [Example 15, (S)-5-((1-(4-(3-(Dimethylamino)pyrrolidin-1-yl)phenyl)-1H-imidazol-4-yl)amino)pyrazine-2-carbonitrile]
100 to 316 | – | CN1CCN(C(=O)c2ccc(-n3cnc(Nc4cnc(C#N)cn4)c3)cc2)CC1 [Example 144, 5-((1-(4-(4-Methylpiperazine-1-carbonyl)phenyl)-1H-imidazol-4-yl)amino)pyrazine-2-carbonitrile]
316 to 1000 | – | Cc1cc(N2CCN(C)CC2)ccc1-n1cnc(Nc2cnc(C#N)cn2)c1 [Example 145, 5-((1-(2-methyl-4-(4-Methylpiperazin-1-yl)phenyl)-1H-imidazol-4-yl)amino)pyrazine-2-carbonitrile]
10 to 31.6 | – | N#Cc1cnc(Nc2cn(-c3ccc(N4CC[C@@H](N5CCCC5)C4)cc3)cn2)cn1 [Example 147, (R)-5-((1-(4-([1,3′-Bipyrrolidin]-1′-yl)phenyl)-1H-imidazol-4-yl)amino)pyrazine-2-carbonitrile]
10 to 31.6 | – | CN[C@H]1CN(c2ccc(-n3cnc(Nc4cnc(C#N)cn4)c3)cc2)C[C@H]1OC [Example 163, 5-((1-(4-((3R,4S)-3-Methoxy-4-(methylamino)pyrrolidin-1-yl)phenyl)-1H-imidazol-4-yl)amino)pyrazine-2-carbonitrile]
10 to 31.6 | – | CCN1CCN(c2ccc(-n3cnc(Nc4cnc(C#N)cn4)c3)cc2)CC1 [Example 185, 5-((1-(4-(4-Ethylpiperazin-1-yl)phenyl)-1H-imidazol-4-yl)amino)pyrazine-2-carbonitrile]
